# Experimental data taken from PMC6328430, “Radiation dosimetry of [^68Ga]PSMA-11 in low-risk prostate cancer patients” (EJNMMI Physics, 2019).
# Like-named read-outs stand apart in the source and are kept apart here.
# How the values were obtained:
# [1] = Blood activity clearance from venous blood samples (bi-exponential fit); assay type: in vivo, human
# Method: Venous blood samples were drawn at 45 min, 85 min, 175 min, and 245 min post-injection. The activity concentrations of these samples were measured in the abovementioned well counter. No metabolite analysis of the samples was performed, since this is beyond the scope of this dosimetry study.
# (§1) The uptake was fitted to a bi-exponential or mono-exponential function of time post-injection using the software SAAM II (The Epsilon Group, Charlottesville, VA, USA). This function is used to calculate the time-integrated activity coefficient (TIAC), i.e., total number of decays per administered activity. […] The cumulated activity in the urinary bladder was calculated in a similar way, using measured data for urine plus bladder content. ICRP uses 3.5-h voiding interval for calculating absorbed doses from radiopharmaceuticals; thus, the activity in the bladder is zeroed at 3.5 and 7 h post-injection, before calculating the cumulated activity in accordance with Eq. 2.
# TIACs for the organs used in the dose calculations can be seen in Table 1. […] The fitted blood curve was calculated on pooled normalized data and forced through the point 100% at time zero.
# [2] = Absorbed organ dose and effective dose calculation (IDAC-Dose 2.1, ICRP 133/103; Monte Carlo for eye lenses); assay type: in vivo, human
# Source text: (§2) Volumes of interest (VOIs) were delineated for the kidneys, liver, lungs, spleen, salivary glands, and total body by a medical physicist and a radiologist using RayStation (RaySearch Laboratories, Stockholm, Sweden). Using the MICE Toolkit (Nonpi Medical AB, Umea, Sweden), the median VOI activity-concentration (Cmedian(t)) was extracted and used to calculate the fraction injected activity for each imaging session. For a specific VOI, the retention, U(t), in an organ with mass M [g], expressed as fraction of injected activity, is calculated as:1 Ut=Cmediant×M/A0 where A0 is the administered activity [Bq] and t is the time after administration. […] The remaining activity was assumed to be homogeneously distributed in the rest of the body, and the remaining activity in the body could therefore be calculated by subtracting the activities in the specific organ, blood, urinary bladder content, and urine from the decay-corrected administered activity.
# as §1
# The absorbed dose to the organs was calculated using the software IDAC-Dose 2.1 [22] which uses specific absorbed fractions for photons and electron from ICRP Publication 133 [19], […]
# To calculate the dose to the lacrimal glands, spherical shape was assumed, with a mass of 0.7 g each, using the “sphere module” in IDAC-Dose 2.1. […] The lens of the eyes is a target organ in ICRP Publication 133 [19]; however, the lacrimal glands are not identified as source organs in the ICRP phantoms and an absorbed fraction is not presented in this report. Monte Carlo methods were therefore used to calculate absorbed fractions using the ICRP/ICRU voxel phantom for an adult. For the image activity concentration, the highest voxel was used, instead of the median. The reason for this is that the small size of the glands results in a significant “partial volume effect” [26].
# [3] = cited from earlier work
# [4] = PET/CT organ uptake and time-integrated activity coefficients after i.v. [^68Ga]PSMA-11; assay type: in vivo, human
# Method: The PET/CT scanning was performed at the University Hospital of Umeå on a Discovery 690 [18] The first session, aimed to depict the fast tracer distribution, consisted of three head-to-thigh scans commencing at times 0, 10, and 20 min post-injection, followed by a head-to-toe whole-body scan approximately 30 min post-injection. The remaining three acquisitions were all head-to-toe scans, commencing at 90 min, 180 min, and 255 min post-injection. CT scans were acquired with 120 kV, 10 mA, 0.5 s/revolution, and 2.5-mm slice thickness, except for the whole-body scan at the first session which was acquired with 30 mA (Fig. 1) to provide adequate anatomical information. All PET scans were acquired using time-of-flight mode, with 60 s per bed position, and 11 slices bed overlap. PET images, corrected for attenuation and scatter, were reconstructed using the scanner implementation of the 3D iterative ordered subset expectation maximization (OSEM) reconstruction including time-of-flight (named VuePoint HD ViP) with 2 iterations, 24 subsets, 6.4-mm post-filter, and a 70-cm field-of-view, yielding a 128 × 128 matrix (5.5 × 5.5 × 3.27 mm^3 voxels). PET images were decay-corrected to start of each scan.
# Urine was collected up to 4 h post-injection, and the total voided volume was weighed. From each voided volume, a 1-mL sample was weighed and radioactivity was measured using a well counter (NaI-scintillator), and the activity concentration in Bq/mL was calculated. The activity concentration and voided volume were used to calculate the total voided activity.
# as §2, §1
# [5] = bi-exponential fit, pooled normalized data
# [6] = six participants, sphere of 0.7 g
# [7] = median of six patients, ICRP/ICRU voxel phantom organ mass
structure (smiles),measurement,setting,value
"O=C([O-])CN(CCN(CC(=O)[O-])Cc1cc(CCC(=O)NCCCCCC(=O)NCCCC[C@H](NC(=O)N[C@@H](CCC(=O)O)C(=O)O)C(=O)O)ccc1[O-])Cc1cc(CCC(=O)O)ccc1[O-].[68Ga+3].[OH3+] [[^68Ga]PSMA-11, ^68Ga-labeled Glu-NH-CO-NH-Lys(Ahx)-HBED-CC]","Biological half-life in blood, fast component",[1]; [5],6.5 min
same,"Biological half-life in blood, slow component",[1]; [5],4.4 h
same,Fraction of blood activity cleared with the 6.5 min half-life,[1]; fast component,91%
same,Fraction of blood activity cleared with the 4.4 h half-life,[1]; slow component,9%
same,"Liver dose factor, conventional method",[2]; TIAC derived with measured organ volumes (liver mass 800–1200 g),0.034 mGy/MBq
same,Effective dose per administration,[2]; administered activity of 2 MBq/kg to a person weighting 80 kg,3.5 mSv
same,Effective dose,[2]; calculated for comparison using ICRP Publication 60,0.022 mSv/MBq
same,Effective dose,"[2]; median, ICRP Publication 103, male component only",0.022 mSv/MBq
same,"Absorbed dose coefficient, Colon wall, Median",[2]; six participants,0.014 mGy/MBq
same,"Absorbed dose coefficient, Colon wall, Range",[2]; six participants,0.012–0.014 mGy/MBq
same,"Absorbed dose coefficient, Endosteum, Median",[2]; six participants,0.011 mGy/MBq
same,"Absorbed dose coefficient, Endosteum, Range",[2]; six participants,0.0095–0.011 mGy/MBq
same,"Absorbed dose coefficient, Esophagus, Median",[2]; six participants,0.014 mGy/MBq
same,"Absorbed dose coefficient, Esophagus, Range",[2]; six participants,0.011–0.015 mGy/MBq
same,"Absorbed dose coefficient, Kidneys, Median",[2]; six participants,0.24 mGy/MBq
same,"Absorbed dose coefficient, Kidneys, Range",[2]; six participants,0.20–0.28 mGy/MBq
same,"Absorbed dose coefficient, Liver, Median",[2]; six participants,0.053 mGy/MBq
same,"Absorbed dose coefficient, Liver, Range",[2]; six participants,0.038–0.071 mGy/MBq
same,"Absorbed dose coefficient, Lungs, Median",[2]; six participants,0.016 mGy/MBq
same,"Absorbed dose coefficient, Lungs, Range",[2]; six participants,0.013–0.017 mGy/MBq
same,"Absorbed dose coefficient, Red bone marrow, Median",[2]; six participants,0.015 mGy/MBq
same,"Absorbed dose coefficient, Red bone marrow, Range",[2]; six participants,0.014–0.015 mGy/MBq
same,"Absorbed dose coefficient, Salivary glands, Median",[2]; six participants,0.089 mGy/MBq
same,"Absorbed dose coefficient, Salivary glands, Range",[2]; six participants,0.074–0.15 mGy/MBq
same,"Absorbed dose coefficient, Skin, Median",[2]; six participants,0.0067 mGy/MBq
same,"Absorbed dose coefficient, Skin, Range",[2]; six participants,0.0059–0.0069 mGy/MBq
same,"Absorbed dose coefficient, Spleen, Median",[2]; six participants,0.046 mGy/MBq
same,"Absorbed dose coefficient, Spleen, Range",[2]; six participants,0.030–0.10 mGy/MBq
same,"Absorbed dose coefficient, Stomach wall, Median",[2]; six participants,0.015 mGy/MBq
same,"Absorbed dose coefficient, Stomach wall, Range",[2]; six participants,0.015–0.017 mGy/MBq
same,"Absorbed dose coefficient, Testes, Median",[2]; six participants,0.0087 mGy/MBq
same,"Absorbed dose coefficient, Testes, Range",[2]; six participants,0.0074–0.0089 mGy/MBq
same,"Absorbed dose coefficient, Thyroid, Median",[2]; six participants,0.010 mGy/MBq
same,"Absorbed dose coefficient, Thyroid, Range",[2]; six participants,0.0090–0.010 mGy/MBq
same,"Absorbed dose coefficient, Urinary bladder wall, Median",[2]; six participants,0.057 mGy/MBq
same,"Absorbed dose coefficient, Urinary bladder wall, Range",[2]; six participants,0.028–0.084 mGy/MBq
same,"Absorbed dose coefficient, Eye lenses, Median","[2]; six participants, Monte Carlo methods for lacrimal gland contribution",0.0051 mGy/MBq
same,"Absorbed dose coefficient, Lacrimal glands, Median",[2]; [6],0.11 mGy/MBq
same,"Absorbed dose coefficient, Lacrimal glands, Range",[2]; [6],0.043–0.2 mGy/MBq
same,Kidney dose,[3]; Afshar-Oromieh et al. ref 15,0.262 mGy/MBq
same,Kidney dose,[3]; Demirci et al. ref 16,0.246 mGy/MBq
same,Lacrimal glands absorbed dose,"[3]; unit density sphere model, Demirci et al. ref 16",0.04 ± 0.008 mGy/MBq
same,Accumulation in kidneys,"[4]; intravenous injection, PET/CT",7%
same,Accumulation in liver,"[4]; intravenous injection, PET/CT",15%
same,Accumulation in salivary glands,"[4]; intravenous injection, PET/CT",0.5%
same,Accumulation in spleen,"[4]; intravenous injection, PET/CT",2%
same,"Liver TIAC, conventional method",[4]; measured organ volumes (liver mass 800–1200 g),0.10 h
same,"Time-integrated activity coefficient, Blood, Median",[4]; median of six patients,0.27 h
same,"Time-integrated activity coefficient, Urinary bladder contents, Median","[4]; median of six patients, 3.5-h voiding interval",0.11 h
same,"Time-integrated activity coefficient, Kidneys, Median",[4]; [7],0.22 h
same,"Time-integrated activity coefficient, Liver, Median",[4]; [7],0.23 h
same,"Time-integrated activity coefficient, Spleen, Median",[4]; [7],0.021 h
same,"Time-integrated activity coefficient, Salivary glands, Median","[4]; median of six patients, estimated directly from uptake data (Eq. 2)",0.020 h
same,"Time-integrated activity coefficient, Lacrimal glands, Median","[4]; median of six patients, highest voxel x factor 2, 0.7 g each",0.00053 h
same,"Time-integrated activity coefficient, Remainder, Median","[4]; median of six patients, rest of the body",0.68 h
same,"Time-integrated activity coefficient, Blood, P1",[4]; patient P1,0.32 h
same,"Time-integrated activity coefficient, Kidneys, P1",[4]; patient P1,0.22 h
same,"Time-integrated activity coefficient, Lacrimal glands, P1",[4]; patient P1,0.00075 h
same,"Time-integrated activity coefficient, Liver, P1",[4]; patient P1,0.26 h
same,"Time-integrated activity coefficient, Remainder, P1",[4]; patient P1,0.51 h
same,"Time-integrated activity coefficient, Salivary glands, P1",[4]; patient P1,0.036 h
same,"Time-integrated activity coefficient, Spleen, P1",[4]; patient P1,0.049 h
same,"Time-integrated activity coefficient, Urinary bladder contents, P1",[4]; patient P1,0.12 h
same,"Time-integrated activity coefficient, Blood, P2",[4]; patient P2,0.26 h
same,"Time-integrated activity coefficient, Kidneys, P2",[4]; patient P2,0.27 h
same,"Time-integrated activity coefficient, Lacrimal glands, P2",[4]; patient P2,0.00055 h
same,"Time-integrated activity coefficient, Liver, P2",[4]; patient P2,0.15 h
same,"Time-integrated activity coefficient, Remainder, P2",[4]; patient P2,0.76 h
same,"Time-integrated activity coefficient, Salivary glands, P2",[4]; patient P2,0.020 h
same,"Time-integrated activity coefficient, Spleen, P2",[4]; patient P2,0.012 h
same,"Time-integrated activity coefficient, Urinary bladder contents, P2",[4]; patient P2,0.094 h
same,"Time-integrated activity coefficient, Blood, P3",[4]; patient P3,0.36 h
same,"Time-integrated activity coefficient, Kidneys, P3",[4]; patient P3,0.19 h
same,"Time-integrated activity coefficient, Lacrimal glands, P3",[4]; patient P3,0.00038 h
same,"Time-integrated activity coefficient, Liver, P3",[4]; patient P3,0.22 h
same,"Time-integrated activity coefficient, Remainder, P3",[4]; patient P3,0.62 h
same,"Time-integrated activity coefficient, Salivary glands, P3",[4]; patient P3,0.021 h
same,"Time-integrated activity coefficient, Spleen, P3",[4]; patient P3,0.017 h
same,"Time-integrated activity coefficient, Urinary bladder contents, P3",[4]; patient P3,0.13 h
same,"Time-integrated activity coefficient, Blood, P4",[4]; patient P4,0.22 h
same,"Time-integrated activity coefficient, Kidneys, P4",[4]; patient P4,0.23 h
same,"Time-integrated activity coefficient, Lacrimal glands, P4",[4]; patient P4,0.00093 h
same,"Time-integrated activity coefficient, Liver, P4",[4]; patient P4,0.23 h
same,"Time-integrated activity coefficient, Remainder, P4",[4]; patient P4,0.78 h
same,"Time-integrated activity coefficient, Salivary glands, P4",[4]; patient P4,0.017 h
same,"Time-integrated activity coefficient, Spleen, P4",[4]; patient P4,0.026 h
same,"Time-integrated activity coefficient, Urinary bladder contents, P4",[4]; patient P4,0.041 h
same,"Time-integrated activity coefficient, Blood, P5",[4]; patient P5,0.25 h
same,"Time-integrated activity coefficient, Kidneys, P5",[4]; patient P5,0.19 h
same,"Time-integrated activity coefficient, Lacrimal glands, P5",[4]; patient P5,0.00052 h
same,"Time-integrated activity coefficient, Liver, P5",[4]; patient P5,0.19 h
same,"Time-integrated activity coefficient, Remainder, P5",[4]; patient P5,0.73 h
same,"Time-integrated activity coefficient, Salivary glands, P5",[4]; patient P5,0.030 h
same,"Time-integrated activity coefficient, Spleen, P5",[4]; patient P5,0.019 h
same,"Time-integrated activity coefficient, Urinary bladder contents, P5",[4]; patient P5,0.16 h
same,"Time-integrated activity coefficient, Blood, P6",[4]; patient P6,0.28 h
same,"Time-integrated activity coefficient, Kidneys, P6",[4]; patient P6,0.26 h
same,"Time-integrated activity coefficient, Lacrimal glands, P6",[4]; patient P6,0.0002 h
same,"Time-integrated activity coefficient, Liver, P6",[4]; patient P6,0.31 h
same,"Time-integrated activity coefficient, Remainder, P6",[4]; patient P6,0.63 h
same,"Time-integrated activity coefficient, Salivary glands, P6",[4]; patient P6,0.017 h
same,"Time-integrated activity coefficient, Spleen, P6",[4]; patient P6,0.022 h
same,"Time-integrated activity coefficient, Urinary bladder contents, P6",[4]; patient P6,0.050 h
